Measurements as given in PMC6715247 (PLoS Neglected Tropical Diseases, 2019).
“Also recorded” adds a separate entry of the source. Read-outs that look alike come from different tables or passages of the source.

Experiments:
rEhAPSK = rEhAPSK (Entamoeba histolytica, UniProt C4LUW9); test: 96-well plate-based in vitro APSK activity assay (coupling assay, NADH decrease); assay type: biochemical; details: for Inhibition of rEhAPSK activity: 10 μM compound, 1% DMSO
Description: (§1) A coupling assay to measure APSK activity was performed as described except a 96-well plate was used. Briefly, each well contained 100 μL reaction mixture, which consisted of 90 μL coupling solution and 10 μL of either compound solution (see below) or 10% DMSO. […] The coupling solution was 100 mM Tris/HCl (pH 8.0), 1 mM MgCl2, 1 mM KCl, 5 mM Mg2ATP, 1 mM NADH, 1 mM PEP, 1 U NP1, 3.5 U PK, 5.0 U LDH, and APSK (≤3 μL). […] As controls, in place of purified APSK solution (rEhAPSK or rHsAPSK), 3 μL of a blank [50 mM Tris/HCl buffer (pH 8.0)], a solvent (elution buffer), a mock (rEhSF2), or denatured APSK suspensions obtained by heat-treatment, were added to the coupling solution. The activity of each sample was calculated after removing the baseline value of the blank control.
(§2) For the inhibition assay, 2 μL of each stock solution, which were distributed in a 96-well plate, were transferred to a new plate to make a replicate. After adding 18 μL deionized water to each well and mixing, 10 μL of each diluted solution (100 μM compound solution) was again transferred into a new 96-well plate to make a replicate. Then 90 μL of the coupling solution prepared above was dispensed into each well containing the previously added 10 μL of 100 μM compound solution. As a solvent control, 10% DMSO solution (vol/vol-deionized water) was used in place of compound solution. The final concentrations of each compound and DMSO in a well were 10 μM and 1% (vol/vol), respectively. The assays were performed independently three times, and data are shown as the mean with SD.
One millimolar stock solutions used were either thawed in a replicate (96-well plate) prepared in [18] […] Subsequently, 3.4 μL of the 1 mM and each diluted stock solution were dispensed into wells of a 96-well culture plate, containing 30.6 μL deionized water and mixed well by pipetting. Ten microliters of all resulting solutions were then dispensed into wells of a 96-well plate to make triplicates and then used as described for the above inhibition assay. 10% DMSO solution was used as an inhibitor-free control. Note that the final DMSO concentration in any well was 1% (vol/vol).
(§3) In all assays, prepared mixtures in a plate were mixed on a vibrating table equipped with either an EnVision or ARVO plate reader (PerkinElmer) before starting the reaction.

[1] = target: T1, rHsAPSK (recombinant APSK domain of HsPAPSS1) (Homo sapiens, UniProt O43252); test: as above; assay type: biochemical; details: 10 μM compound, 1% DMSO
T1 construct: APSK domains of HsPAPSS1 (Ala^25—Pro^227) and -2 (Ser^15—Pro^217); His tag (pCold-I vector); made in house; host or cells: E. coli BL21(DE3)
T1 sequence (O43252 25-227): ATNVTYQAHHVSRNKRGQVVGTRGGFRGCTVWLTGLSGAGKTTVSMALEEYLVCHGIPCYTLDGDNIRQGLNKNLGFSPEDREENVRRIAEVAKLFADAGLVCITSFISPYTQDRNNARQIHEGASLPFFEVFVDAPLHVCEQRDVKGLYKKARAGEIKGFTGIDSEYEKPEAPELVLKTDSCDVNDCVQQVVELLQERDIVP
Description: as §1, §2, §3

[2] = system: E. invadens cyst formation; parameters: method as in PMID 30087858; details: 10 μM; ref [18]; cited from earlier work
[3] = WST-1-based cytotoxicity assay; details: human
Description: (§4) Human foreskin fibroblast (HFF) cells (purchased from ATCC) were routinely maintained in DMEM supplemented with 10% fetal bovine serum, 100 units/ml penicillin, […] and 1% GlutaMAX™-I (Thermo Fisher Scientific, Waltham, MA). A WST-1-based cytotoxicity assay was performed as previously described. In detail, HFF cells were plated at 1.0×10^4 cells/100 μL medium in each well of a 96-well culture plate, and incubated overnight at 37°C in a 5% CO2 atmosphere to allow cells to adhere to the wells. […] Numbers of viable cells were then assessed using the Premix WST-1 Cell Proliferation Assay System (Takara). […] DMSO was added at 1% as a negative control whereas ionomycin was added at 30 μM as a positive control. As a blank, the above culture medium was used in place of the solutions added.

[4] = system: E. histolytica trophozoites; test: Morphological analysis by phase contrast microscopy; assay type: cell-based, Entamoeba histolytica; details: 6 h treatment
Text: Cell morphology was then observed by phase contrast microscopy using a Primovert microscope (Carl Zeiss, Germany) with a COMS camera (E3CMOS12000KPA, ToupTek, China). […] Cell images were captured using ToupView software (ToupTek).

[5] = system: E. histolytica trophozoite; test: E. histolytica trophozoite proliferation assay (flow cytometry); assay type: cell-based; details: Entamoeba histolytica, read-out: Trophozoite proliferation IC50
Description: (§5) E. histolytica trophozoite proliferation and E. invadens cyst formation assays were performed essentially as described in [18] except that in addition to 0–72 and 48–72 h cyst formation assays, 0–96 and 0–120 h, and 48–96 and 48–120 h assays were also performed.

[6] = system: E. invadens cyst formation; test: E. invadens cyst formation (encystation) assay (flow cytometry); assay type: cell-based, Entamoeba invadens; details: for IC50: Entamoeba invadens, read-out: Cyst formation IC50; for Number of cysts formed at 72 h: compound added at 48 h post-induction (48–72 h)
Description: as §5

[7] = system: sulfolipids synthesized in E. histolytica trophozoites; test: Metabolic labeling by [35S]-labeled sulfate, sulfolipid synthesis; assay type: cell-based, Entamoeba histolytica; details: 6 h treatment; A-D-11, A-H-11 6.25-100 μM, E-H-05 0.5-8 μM
Description: Metabolic labeling of E. histolytica trophozoites by [^35S]-labeled sulfate was performed essentially as described previously with slight modification. […] Each 10 mM stock solution (in DMSO) of the three commercially sourced compounds was serially diluted by 2-fold decrements with DMSO. The resulting diluted solutions were then added to 0.75 ml cell suspension in BI-S-33 medium at 1/100 (vol/vol). […] Note that DMSO was used as a solvent control at 1%, which was the DMSO concentration in all samples analyzed. [^35S]-labeled sulfate (45 μCi) was added 4 h after the start of treatments and labeled cells were harvested at 6 h. […] Each spot on the TLC plates was quantified using a Fuji imaging analyzer and Multi Gauge 2.2 software (FLA-7000; Fujifilm, Japan). The total cell protein was estimated using a Pierce BCA protein assay kit (Thermo Scientific, Rockford, IL, USA).

[8] = system: Human foreskin fibroblast (HFF) cells; test: WST-1-based cytotoxicity assay
Description: as §4

[9] = system: E. histolytica trophozoite; parameters: method as in PMID 30087858; details: 10 μM; ref [18]; cited from earlier work
[10] = read-out: APSK activity IC50, rEhAPSK, average ± SD, more than three independent experiments
[11] = rEhAPSK, average ± SD, more than three independent experiments, read-out: APSK activity IC50

Sequence of rEhAPSK (C4LUW9 entry or part of it): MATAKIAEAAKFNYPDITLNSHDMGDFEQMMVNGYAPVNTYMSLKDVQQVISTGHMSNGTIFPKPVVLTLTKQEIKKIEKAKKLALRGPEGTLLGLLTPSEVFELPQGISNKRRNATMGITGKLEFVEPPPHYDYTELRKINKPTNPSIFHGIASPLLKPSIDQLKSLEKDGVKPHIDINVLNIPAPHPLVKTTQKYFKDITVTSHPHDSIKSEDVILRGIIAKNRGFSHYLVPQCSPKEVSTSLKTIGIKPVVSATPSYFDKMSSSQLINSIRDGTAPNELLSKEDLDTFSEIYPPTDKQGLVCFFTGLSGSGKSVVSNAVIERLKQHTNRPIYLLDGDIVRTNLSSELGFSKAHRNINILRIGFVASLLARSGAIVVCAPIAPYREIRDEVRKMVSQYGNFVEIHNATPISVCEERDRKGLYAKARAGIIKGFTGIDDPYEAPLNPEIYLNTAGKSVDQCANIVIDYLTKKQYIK

Compound | Inhibition of rEhAPSK activity (rEhAPSK) | IC50 (rEhAPSK; [11]) | Number of viable HFF cells relative to 1% DMSO control (set as 100%) ([8]; 10 μM, 48 h) | also measured
COc1ccc(C2=NN(C3CCCCCC3)C(=O)C2(C)C)cc1OCCCCOc1ccc(-c2nnn[nH]2)cc1 [A-C-05] | reproducibly inhibited rEhAPSK activity | – | – | IC50 (rEhAPSK): 4.73 ± 1.16 µM; IC50 (rEhAPSK; [10]): < 10 µM
O=C(COc1cccc(F)c1)Nc1nc(-c2ccccn2)cs1 [A-D-11, 2-(3-fluorophenoxy)-N-[4-(2-pyridyl)thiazol-2-yl]-acetamide] | reproducibly inhibited rEhAPSK activity | – | – | Inhibition of rHsAPSK activity [1]: none showed any inhibitory activity against HsAPSK; Effect on cyst formation [2]: negative effects; IC50 at 48 h [3]: > 100 µM; Concentration range that produced trophozoite morphology similar to DMSO control [4]: 6.25–100 μM; IC50 (rEhAPSK): 6.3 ± 1.53 µM; IC50 (rEhAPSK; [10]): < 10 µM; IC50 [5]: 7.5 ± 2.29 µM; IC50 [6]: 2.27 ± 0.252 µM; Number of cysts formed at 72 h [6]: neither A-D-11 nor A-H-11 affected the number of cysts formed at 72 h; Amount of sulfolipids synthesized [7]: dose-dependently reduced the amount of sulfolipids synthesized
COc1cccc(-n2nnnc2S(=O)(=O)Cc2ccccc2)c1 [A-F-04] | reproducibly inhibited rEhAPSK activity | > 10 µM | – | –
Cc1cc(C)cc(COc2ccc3c(C)c(CCC(=O)O)c(=O)oc3c2C)c1 [A-F-07] | reproducibly inhibited rEhAPSK activity | 7.67 ± 1.25 µM | did not affect numbers of viable cells | –
O=C(Nc1nc(-c2ccccn2)cs1)c1cncn1-c1ccccc1 [A-H-11, 3-phenyl-N-[4-(2-pyridyl)thiazol-2-yl]-imidazole-4-carboxamide] | reproducibly inhibited rEhAPSK activity | 6.75 ± 1.35 µM | did not affect numbers of viable cells; also recorded: did not influence numbers of viable HFF cells | Inhibition of rHsAPSK activity [1]: none showed any inhibitory activity against HsAPSK; Effect on cyst formation [2]: negative effects; Number of viable HFF cells relative to DMSO control ([8]; 100 μM, 48 h): did not influence numbers of viable HFF cells; IC50 at 48 h ([3]; human foreskin fibroblast (HFF) cells): > 100 µM; Concentration range that produced trophozoite morphology similar to DMSO control [4]: 6.25–100 μM; IC50 ([5]; average ± SD, three independent experiments): 4 ± 1.05 µM; IC50 ([6]; 0–72 h, average ± SD, three independent experiments): 2.35 ± 0.132 µM; Number of cysts formed at 72 h [6]: neither A-D-11 nor A-H-11 affected the number of cysts formed at 72 h; Amount of sulfolipids synthesized [7]: dose-dependently reduced the amount of sulfolipids synthesized; Effect on trophozoite proliferation [9]: negative effects
Cc1cc(C2=NOC(c3cc(Cl)c(F)c(Cl)c3)(C(F)(F)F)C2)ccc1C(=O)NCc1ccc2c(c1)C(C)(C)OB2O (centres unmarked) [B-B-05] | reproducibly inhibited rEhAPSK activity | – | – | Number of viable HFF cells relative to 1% DMSO control (set as 100%) ([8]; 10 µM): did not affect numbers of viable cells; IC50 (rEhAPSK): 5.73 ± 1.36 µM; IC50 (rEhAPSK; [10]): < 10 µM
COc1ccc(C2=NN(C3CCCCCC3)C(=O)C3CC=CCC23)cc1OCCCCOc1ccc(-c2nnn[nH]2)cc1 (centres unmarked) [B-C-02] | reproducibly inhibited rEhAPSK activity | – | – | Number of viable HFF cells relative to 1% DMSO control (set as 100%) ([8]; 10 µM): ~20 − ~60
COc1ccc(Cl)cc1NC(=O)CN(C)C(=O)c1cnn(-c2ccccc2)n1 [B-C-08] | reproducibly inhibited rEhAPSK activity | 6.57 ± 1.25 µM | did not affect numbers of viable cells | –
Cc1ccc(C(=O)Nc2ccc(S(=O)(=O)O)c3cc(S(=O)(=O)O)cc(S(=O)(=O)O)c23)cc1NC(=O)c1cccc(NC(=O)Nc2cccc(C(=O)Nc3cc(C(=O)Nc4ccc(S(=O)(=O)O)c5cc(S(=O)(=O)O)cc(S(=O)(=O)O)c45)ccc3C)c2)c1 [B-D-03, suramin, reference compound] | reproducibly inhibited rEhAPSK activity | 0.52 ± 0.102 µM | – | Number of viable HFF cells relative to 1% DMSO control (set as 100%) ([8]; 10 µM): did not affect numbers of viable cells
Cn1c(=O)c2c(S(C)(=O)=O)snc2n(C)c1=O [C-C-06] | reproducibly inhibited rEhAPSK activity | 8.67 ± 2.62 µM | – | –
N=C(N)Nc1ccc(-c2ccc(-c3ccc(NC(=N)N)cc3Cl)o2)c(Cl)c1 [C-F-03] | reproducibly inhibited rEhAPSK activity | 2.03 ± 0.205 µM | did not affect numbers of viable cells | –
C[C@]1(COc2ccc(N3CCC(Oc4ccc(OC(F)(F)F)cc4)CC3)cc2)Cn2cc([N+](=O)[O-])nc2O1 [C-F-06, delamanid, reference compound] | reproducibly inhibited rEhAPSK activity | > 10 µM | did not affect numbers of viable cells | –
N=C(N)Nc1ccc(-c2ccc(-c3ccc(NC(=N)N)c(Cl)c3)o2)cc1Cl [D-E-10] | reproducibly inhibited rEhAPSK activity | 0.47 ± 0.0499 µM | did not affect numbers of viable cells | –
O=C(Nc1nnc(S)s1)c1cc(Br)ccc1Cl [E-G-10] | reproducibly inhibited rEhAPSK activity | > 10 µM | did not affect numbers of viable cells | –
C[C@H](CCC(=O)O)C[C@H](C)C[C@H](C)C(=O)/C=C(\O)[C@H](C)C[C@H](C)C/C=C/[C@@H](C)[C@@H](O)[C@@H](C)[C@@H](O)C[C@@H]1CC[C@@](C)([C@H]2CC[C@@](C)([C@@H](C)O)O2)O1 [ionomycin, reference compound] | – | – | – | HFF cell viability ([8]; 30 μM, positive control): almost completely abolished cell viability
